Results: US20240120053A1, “5-HT RECEPTOR AGONIST TITRATION” (Diamond Therapeutics Inc., priority 2021, published 2024)
“Also recorded” adds a separate entry of the source.

Key:
[1] = tested on: mice; test: Mismatch Negativity (MMN) EEG test, ascending dose protocol; assay type: in vivo; settings: ascending low, medium, high dose, frontal cortex EEG recording (FIG. 6A, 6B)
Protocol: (§1) Fourteen mice with a history of testing with scopolamine and memantine, containing implanted with a frontal screw for MMN measurement (in mm: AP 1.5; ML 0.5) and an auditory screw for ASSR measurement (in mm: AP −2.8; ML 4.2), are administered an ascending dose of psilocybin. As the mice have been tested with the MMN-ASSR protocol, they are not further habituated prior to psilocybin testing. The ascending dose protocol is summarized below and in FIG. 1: • Week 1: Day 1: Saline, Day 2: Vehicle • Week 2: Day 1:Saline, Day 2: Low Dose • Week 3: Day 1: Saline, Day 2: Medium Dose • Week 4: Day 1: Saline, Day 2: High Dose
Each animal is administered the same compound and dose each day (e.g., saline on day 1, vehicle or compound on day 2). […]
(§2) The ongoing behavior (e.g., speed, total number of grooming bouts, elongation factor, distance traveled, head bobbing, etc.) of each mouse is assessed over each daily recording session (e.g., see FIG. 3). […] The amplitude of the standard and deviant waveforms are also calculated. […] The ASSR is recorded as the average amplitude of both Evoked Power and Phase Locking Factor at each frequency (20 Hz, 30 Hz, 40 Hz, and 8 Hz) for control (saline) and compound (psilocybin). The difference between the control and compound recording for Evoked Power (e.g., see FIG. 4A and FIG. 4B) and Phase Locking Factor (e.g., see FIG. 5A and FIG. 5B) is determined. […]

[2] = cited from earlier work
[3] = tested on: out-bred Long Evans rats; test: Progressive ratio (PR) test of motivation; assay type: in vivo
Protocol: (§3) Experiments were conducted to test psilocybin doses in the range of 0.05-0.2 mg/kg psilocybin administered S.C. across progressive ratio (PR) and 5-choice serial reaction time task (5CSRTT) to examine the effect of psilocybin on endophenotypes of motivation and attention. In each study, a population of out-bred Long Evans rats was first tested as a group for response to the PR and 5CSRTT. Each group was then divided into sub-groups by tertiles according to performance, and then exposed to various dose levels immediately prior to re-testing at various psilocybin dose levels.
The PR test is used to answer how willing the test subject is to work for food (i.e. test of motivation). A single 45 mg food pellet (i.e. reinforcer) is made available to the test animal based on lever press response. To obtain each successive pellet, the animal must make increasingly more lever presses. Typically, a progression of 2, 4, 6, 9, 12, 15, 20, 25, 32, 40, 50, 62, 77, 95, 118, etc. is used, derived from the equation:
ratio=[5×e^(0.2×reinforcer#)−5]
At some point, the animal gives up as the motor demands to obtain a single pellet are not deemed worthwhile (i.e. animal reaches“break point” defined as animal's failure to earn a food pellet in 20 minutes).
Rats were then sub-grouped into tertiles based on the number of lever presses for food at baseline, so that within the test population of 36 animals, 12 animals were identified as low responders, characterized by low motivation and potentially corresponding to low motivation endophenotype representative of clinical depression. Twelve animals were identified as high responders. There was a statistically significant difference between the high and low responders. […] This represents a motivational enhancing effect of psilocybin in the cohort corresponding to a low motivation endophenotype representative of clinical depression.

[4] = tested on: out-bred Long Evans rats; test: 5CSRTT with long 10 s ITI, premature (PREM) and perseverative (PSV) responses; assay type: in vivo; settings: 24 rats, 0.05 mg/kg S.C., p=0.05, t-test
Excerpt: (§4) The 5CSRTT involves evaluating test subject response to a brief visual stimulus (Higgins, Guy & Silenieks, Leonardo. (2017). Rodent Test of Attention and Impulsivity: The 5-Choice Serial Reaction Time Task: The 5-Choice Serial Reaction Time Task. 10.1002/cpph.27). Animals are trained to make a nose-poke response to a stimulus location in order to collect a food reward. The task allows the experimenter to measure animal performance in multiple domains including: • Attention • Impulsivity • Perseveration • Speed of response
(§5) A strength of the test is its flexible configuration to challenge test subjects: • Standard test conditions (0.75s stimulus duration (SD), 5s inter-trial interval (ITI), 100 trials) • Multiple short stimulus duration (mSD) (0.03-1s SD) • Fixed long ITI (5 s vs. 10 s ITI) • Multiple ultrashort ITI (2-5s ITI) • Extended 250 trials
When this population is segmented into tertiles according to performance based on accuracy (% correct, calculated as #correct/(#correct+#incorrect)*100), the lowest performing tertile (N=8) are considered to be low attentive and potentially representative of a low attentive endophenotype of depression (FIG. 26A). Low attentive rats also score poorly on % hit (FIG. 26B) and have a slower response speed (FIG. 26D). […] Asterisk (*) indicates statistical significance vs. vehicle. […]

[5] = Blood plasma levels of psilocin over time in rats dosed with psilocybin; assay type: in vivo; settings: psilocybin 0.05 mg/kg, after 30 mins
[6] = tested on: out-bred Long Evans rats; test: 5-choice serial reaction time task (5CSRTT), standard conditions, 5 s ITI; assay type: in vivo
Protocol: as §3, §4, §5
Asterisk (*) indicates statistical significance vs. vehicle. (FIG. 23A).
When this population is segmented into tertiles according to performance based on accuracy (% correct, calculated as #correct/(#correct+#incorrect)*100), the lowest performing tertile (N=8) are considered to be low attentive and potentially representative of a low attentive endophenotype of depression (FIG. 26A). Low attentive rats also score poorly on % hit (FIG. 26B) and have a slower response speed (FIG. 26D). […] Asterisk (*) indicates statistical significance vs. vehicle. […] Using a longer duration between stimulus and reward, the 5CSRTT study measures premature (PREM) and perseverant (PSV) responses. PREM/PSV responses were increased by increasing the ITI from 5s (baseline) to 10s (test condition). […] Both PREM and PSV behaviors are examples of executive cognitive function, likely involving areas of the prefrontal cortex, a brain region rich in 5-HT2A receptors.

[7] = tested on: mice; test: Ongoing spectral power (qEEG, power spectral density) over daily recording sessions; assay type: in vivo; settings: ascending low, medium, high dose (FIG. 7A-8B)
Protocol: as §1
In particular, on Day 1, animals are subcutaneously administered saline at t=−15 minutes prior to recording start. […]
as §2

[8] = 24 rats, standard conditions, 5 s ITI

## CN(C)CCc1c[nH]c2cccc(OP(=O)(O)O)c12 [psilocybin, 4-phosphoryloxy-N,N-dimethyltryptamine]
[1]
  MMN: difference between the standard tone waveform and the deviant tone waveform: larger difference between the standard tone waveform and the deviant form waveform with higher doses
[2]; human subjects
  doses at which about half of the subjects experience some negative emotions or acute psychological distress: ≥ 30 mg
[2]; human subjects, equals 0.30-0.45 mg/kg
  doses at which the majority of side effects reported in the literature have occurred: 20 to 30 mg
[2]; human subjects, reported in the literature
  threshold dose where mild hallucinogenic activity begins to occur in about half of the subjects: 10 mg
[2]; people, after taking the drug
  onset of physical symptoms (dizziness, nausea, vomiting, headaches, increased pulse and blood pressure etc.): 20 to 30 min
[2]; people
  duration of physical symptoms (dizziness, nausea, vomiting, headaches, increased pulse and blood pressure etc.): up to 6 hours
[2]; people, higher doses, most find symptoms gone by 6 hours after ingestion
  duration of psychedelic symptoms (distorted perception, mood changes): up to 12 hours
[3]; entire study population of 36 rats, 0.05, 0.1 and 0.2 mg/kg S.C.
  number of lever presses or break points (rewards earned): None of these doses were observed to cause obvious changes
[3]; high responder subgroup (12 rats), 0.05-0.2 mg/kg S.C.
  response in PR test: no effect on response
[3]; low responder subgroup (12 rats), 0.05 mg/kg S.C., 0.05 mg/kg
  food responding (lever presses, break point) in PR test: an increase in food responding; also recorded: Significant improvements
[3]; low responder subgroup (12 rats), 0.1 mg/kg S.C.
  food responding in PR test: did not produce an increase in food responding
[4]
  PREM and PSV responses: increase
[5]
  Cmax psilocin: 6+2 ng/ml
[6]; 24 rats, 0.05 mg/kg S.C., 75s SD, 5S ITI, 100 trials, vs. vehicle
  pro-cognitive effect measured as % hit: increased (p=0.05, t-test) pro-cognitive effect
[6]; 24 rats, 0.05 mg/kg S.C., standard conditions, 5 s ITI
  procognitive effect measured as % correct: slight non-significant increase
[6]; [8]
  performance: response speed, number of trials completed: no effect on response speed, or number of trials completed
  premature or perseverative responses: no effect on premature or perseverative responses
[6]; PR and 5CSRTT studies together, 0.05-0.2 mg/kg (PR), 0.05-0.1 mg/kg S.C. (5CSRTT)
  detrimental effects on performance (motivation, motor control, attention, response speed): no detrimental effects
[6]; low attentive cohort, 0.05 mg/kg, vs. vehicle, 0.05 mg/kg
  response speed: increased response speed; also recorded: Significant improvements
[6]; low attentive subgroup (lowest tertile, N=8), 0.05 and 0.1 mg/kg, vs. vehicle
  effect on accuracy (% correct and % hit): strongly evident; also recorded: Significant improvements
[7]
  general brain activity (ongoing spectral power, average PSD): higher dose corresponds with a decrease in general brain activity
